Data on one molecule can be found in PMC11694536 (Alzheimer's & Dementia : Translational Research & Clinical …, 2024).

Structures are written as SMILES. Values after ≈ are worked out from the molar mass of the structure shown.

One data set can be described thus: Solubility. Format: physicochemical. The note with it: phosphate buffer, pH 7.5, aqueous buffer.
Data set [1] addresses human ether‐à‐go‐go (hERG) channel (Homo sapiens, UniProt Q12809). The data set can be described thus: hERG channel inhibition. Format: biochemical.
Data set [2] in a line: Plasma protein binding, mice. Format: in vitro ADME. Conditions: mouse.
The next data set in a line: Predicted human PK. Conditions: allometry from rat, dog, monkey PK.
The nature of data set [3]: Clinical pharmacokinetics in Phase 1 studies. Format: in vivo, human.
Data set [4] can be described thus: Phase 2 study PROSPECT-ALZ in early symptomatic AD. Type of data set: in vivo, human. The note with it: Prospect‐ALZ Phase 2 study; full results to be published separately.
The nature of data set [5]: Phase 1 clinical safety and tolerability. Format: in vivo, human.
In data set [6] the test system is protein O‐GlcNAc modification in human embryonic kidney cells. The data set is described as follows: Cellular protein O-GlcNAc increase. Type of data set: cell-based. The note with it: read-out: Protein O‐GlcNAc (cellular) Relative EC50.
Data set [7] is described as follows: MDCK passive permeability. Type of data set: in vitro ADME, canine. The note with it: dog.
[8] abbreviates: SAD study, single oral doses 0.15 to 16 mg.

Broadly, the solubility is the concentration that dissolves in the medium under given conditions. A word on the IC50: it is the midpoint of a concentration-inhibition curve. The term fraction unbound denotes free concentration divided by total concentration. A word on the CL/F: it is the apparent clearance, not corrected for the fraction that reaches the circulation. In general, EC50 refers to the concentration giving half of the maximal effect. Broadly, the Papp is the rate of passage across a membrane or cell layer, normalised by area and donor concentration.

Chain of human ether‐à‐go‐go (hERG) channel (Q12809 whole entry): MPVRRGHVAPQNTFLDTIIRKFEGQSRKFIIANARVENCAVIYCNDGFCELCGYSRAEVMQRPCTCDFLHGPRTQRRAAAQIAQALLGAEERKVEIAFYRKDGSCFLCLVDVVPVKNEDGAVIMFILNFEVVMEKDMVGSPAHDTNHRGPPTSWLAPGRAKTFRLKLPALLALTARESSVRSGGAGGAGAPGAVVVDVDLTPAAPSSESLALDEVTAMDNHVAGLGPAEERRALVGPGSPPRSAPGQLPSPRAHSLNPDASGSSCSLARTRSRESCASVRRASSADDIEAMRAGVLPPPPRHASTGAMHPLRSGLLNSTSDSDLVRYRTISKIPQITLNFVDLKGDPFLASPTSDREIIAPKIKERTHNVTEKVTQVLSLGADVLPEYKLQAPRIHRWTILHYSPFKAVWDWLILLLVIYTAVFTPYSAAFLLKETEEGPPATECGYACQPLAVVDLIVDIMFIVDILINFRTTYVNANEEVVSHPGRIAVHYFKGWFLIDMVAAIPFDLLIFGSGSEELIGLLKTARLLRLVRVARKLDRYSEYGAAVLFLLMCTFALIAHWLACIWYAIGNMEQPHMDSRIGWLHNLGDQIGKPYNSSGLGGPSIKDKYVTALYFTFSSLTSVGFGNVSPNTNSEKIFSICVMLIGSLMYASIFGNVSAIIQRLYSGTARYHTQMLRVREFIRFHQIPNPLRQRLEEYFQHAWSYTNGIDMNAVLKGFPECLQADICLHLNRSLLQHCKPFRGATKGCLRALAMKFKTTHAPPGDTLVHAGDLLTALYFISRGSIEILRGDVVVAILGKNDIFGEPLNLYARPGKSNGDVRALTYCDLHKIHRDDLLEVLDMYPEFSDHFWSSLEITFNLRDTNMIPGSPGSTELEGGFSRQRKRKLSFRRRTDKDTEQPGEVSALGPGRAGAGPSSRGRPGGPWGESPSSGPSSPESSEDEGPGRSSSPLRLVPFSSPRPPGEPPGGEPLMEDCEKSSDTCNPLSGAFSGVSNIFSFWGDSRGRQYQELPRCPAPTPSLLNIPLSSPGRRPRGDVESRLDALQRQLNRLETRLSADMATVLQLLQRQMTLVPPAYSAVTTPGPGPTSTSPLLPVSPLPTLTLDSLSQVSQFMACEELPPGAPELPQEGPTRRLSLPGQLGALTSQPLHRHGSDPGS

For the molecule `CC(=O)Nc1nc(F)c(CN2CC[C@H](OCc3noc(C)n3)C[C@@H]2C)s1` [ceperognastat], in “Solubility”, the solubility was determined as 1360 µg/mL (≈ 3.55 mM). Moreover, in data set [1], the midpoint of inhibition, the IC50, lay at 81 µM. In addition, in [2], the fraction unbound amounted to 0.684. Further, in the data set “Predicted human PK”, the “predicted human apparent clearance (CL/F)” value is reported as 12 L/h and the “predicted human apparent volume of distribution (V/F)” value is 48 L. Further, the “accumulation with QD dosing” value in data set [3] (MAD study, 1, 3, 7 mg QD for 14 days, day 1 vs day 14) is recorded as “minimal accumulation”. Also, in [3] (setting [8]), the CL/F came to 12 L/h and the V/F came to 112 L. Also, the “clinical benefit in early AD” value in [4] was “did not show evidence of clinical benefit”. Further, the “participants reporting at least one TEAE” value in data set [5] (MD‐PET study, 1 mg QD 14 days) is reported as “Four out of four”. For the same molecule, the “participants reporting TEAEs” value in data set [5] (SAD study, 13 of 23 ceperognastat-treated participants) is 56.5%. The “participants reporting at least one TEAE” value in [5] (SD‐PET study, 8 of 16 participants, single oral dose) is given as 50%. Moreover, the “serious adverse events (SAEs)” value in data set [5] (all Phase 1 clinical studies) is listed as “no serious adverse events”. In data set [6], the EC50 is 0.0219 ± 0.0073 µM. The same molecule returned a Papp in data set [7] of 50.1 ×10⁻⁶ cm/s.
